Series [1] is described as follows: pH over time of 0.1 M aqueous solutions of polyhydroxy-lactones (reaction with water to free acid). The class given is physicochemical. As to conditions: for pH in aqueous solution: 0.1 M; for pH: 0.1 M (1.78%) aqueous solution. The text has this:
In general, because the formulation is to be applied to the skin, it is preferred to have a pH of about three to eight, to minimize irritation, and/or may be in a controlled release formulation, as discussed below. In some cases, an adjustment of the pH of the composition may be desirable because of the tendency of some polyhydroxy-lactones to react with water molecules and form free acid molecules, thereby altering the pH of the overall composition over time until the equilibrium of the reaction has been reached. This lowered pH may cause discomfort to the patient, as the compositions may irritate or sting the skin area when applied. The reaction with water is evidenced by a continued decrease in pH of the solution. As is know in the art, a freshly prepared gluconolactone 1% aqueous solution has pH 3.6. The pH changes to 2.5 after 2 hours. See, The Merck Index, 13th Edition, #4470. […]

For series [2] the following is noted: 1% aqueous solution, cited from earlier work.

Molecules are shown by their SMILES. Like-named read-outs stand apart in the source and are kept apart here.

For `O=C1O[C@H]([C@@H](O)CO)C(O)=C1O` [Control, ascorbic acid, reference compound], the “pH in aqueous solution” value in series [1] (1 hour), in series [1] (6 hours), in series [1] (24 hours), in series [1] (48 hours), in series [1] (72 hours) and in series [1] (fresh) was 2.1 throughout.
With `O=C1O[C@H](CO)[C@@H](O)[C@H](O)[C@H]1O` [D-gluconolactone], the pH is 2.5 in series [2] (after 2 hours); 3.6 in series [2] (freshly prepared); 2.1 in series [1] (0 minutes); 2.0 in series [1] (60 minutes); 1.9 in series [1] (360 minutes); 1.8 in series [1] (4320 minutes). For the same compound, the “pH in aqueous solution” value in series [1] (1 hour) was determined as 2.0; in series [1] (6 hours), 1.9; in series [1] (24 hours), 1.9; in series [1] (48 hours), 1.9; in series [1] (72 hours) it was 1.8; in series [1] (fresh), 2.1.
In the case of `CC1(C)COC(=O)C1O` [D-pantolactone], the “pH in aqueous solution” value was 6.5 in series [1] (1 hour); 6.4 in series [1] (6 hours); 5.9 in series [1] (24 hours); 5.7 in series [1] (48 hours); 5.7 in series [1] (72 hours); 6.5 in series [1] (fresh).
On to `O=C1O[C@@H]([C@H](O)CO)[C@H](O)[C@H]1O` [D-galactonolactone], for which the “pH in aqueous solution” value in series [1] (1 hour) stood at 5.0; in series [1] (6 hours), 3.9; in series [1] (24 hours), 3.2; in series [1] (48 hours), 2.6; in series [1] (72 hours), 2.4; in series [1] (fresh) it was 5.1.
Turning to `O=C[C@H](O)[C@H]1OC(=O)[C@@H](O)[C@H]1O` [D-glucuronolactone], the “pH in aqueous solution” value in series [1] (1 hour) came out at 5.7; in series [1] (6 hours) it was 4.8; in series [1] (24 hours) it was 3.4; in series [1] (48 hours), 2.6; in series [1] (72 hours), 2.3; in series [1] (fresh) it was 5.7.
For the compound `O=C1O[C@@H](C(O)CO)[C@H](O)C1O` (stereo partly drawn) [D-gulonolactone], the “pH in aqueous solution” value in series [1] (1 hour) is reported as 5.8; in series [1] (6 hours) it was 4.6; in series [1] (24 hours), 3.5; in series [1] (48 hours), 3.0; in series [1] (72 hours), 2.7; in series [1] (fresh), 6.2.
On to `O=C1O[C@@H]([C@H](O)[C@H](O)CO)[C@@H](O)C1O` (stereo partly drawn) [D-glucoheptonolactone], for which the “pH in aqueous solution” value in series [1] (1 hour) is given as 5.6; in series [1] (6 hours), 3.9; in series [1] (24 hours), 3.1; in series [1] (48 hours) it was 2.5; in series [1] (72 hours) it was 2.3; in series [1] (fresh), 5.6.
As for `O=C1OC[C@@H](O)[C@H]1O` [D-erythronolactone], the “pH in aqueous solution” value in series [1] (1 hour) came to 6.3; in series [1] (6 hours), 6.2; in series [1] (24 hours), 5.5; in series [1] (48 hours), 3.2; in series [1] (72 hours), 3.1; in series [1] (fresh), 6.3.
Take `O=C1O[C@H](CO)[C@@H](O)[C@H]1O` [D-ribonolactone]: the “pH in aqueous solution” value in series [1] (1 hour) is given as 6.1; in series [1] (6 hours), 5.9; in series [1] (24 hours) it was 3.9; in series [1] (48 hours), 2.8; in series [1] (72 hours), 2.6; in series [1] (fresh), 6.2.

The values above are taken from US20040220259A1, “Topical treatment of dermatological disorders associated with reactive or dilated blood vessels” (priority 2003, published 2004).
